{"source": "patent US10772909B2", "about": "“System and method for insulin-mimetic of cartilage, bone, or osteochondral repair and piezoelectric composite scaffold” (New Jersey Institute of Technology, priority 2016, dated 2020)", "key": {"PBMCs": {"test_system": "PBMCs", "test": "CellTiter-Blue viability assay", "format": "cell-based, human", "conditions": "0.01, 0.1 and 1 mM Na2WO4; 4 days exposure", "method": "CellTiter-Blue Assay (Promega, Madison, Wis.) was used to assess the viability of PBMCs. Cell Titre Blue was used to measure the metabolic activity of PBMCs as a surrogate for cell number. Each experimental group was performed in triplicate in 96-well tissue culture plates. After 4 days, CellTiter-Blue reagent (20 μL/well) was added to each well. The plates were incubated and after 4 hours, the fluorescence intensity was measured with microplate reader (Synergy, HTX, BioTek, Winooski, Vt., USA) at 560/590 nm emission. Percent viability was calculated as the fluorescence reading of treated (stimulated) cells divided by untreated healthy cells, which were considered 100% viable as described in Greco et al.."}, "Human MSCs [1]": {"test_system": "Human MSCs", "test": "MSC growth on PCL scaffolds in growth medium (PicoGreen ds DNA cell number)", "format": "cell-based", "conditions": "GM; for cell number, change from days 4 to 7: p<0.05; for cell number compared to the other groups: days 7 and 11", "method": "MSCs were cultured on the scaffolds in the presence of Na2WO4 (Na2WO4.2H2O, MW=329.85 g/mol; Sigma Aldrich) in the range of 0.01-50 mM to determine which concentrations supported cell growth. Before cell seeding, scaffolds were cut into 6 mm diameter disks using a biopsy punch (Integra Miltek, York, Pa.), sterilized in 100% ethanol for 20 minutes and were air dried overnight. Cryopreserved MSCs were thawed and expanded in tissue culture treated polystyrene flasks (Nunc, Thermo Fisher Scientific, Waltham, Mass., USA) in growth medium (GM) comprised of Dulbecco's Modified Eagle's Medium (DMEM, Invitrogen, Grand Island, N.Y., USA), 10% fetal bovine serum (Hyclone, Thermo Fisher Scientific) and 1% antibiotic-antimycotic (Invitrogen) at 37° C. and 5% CO2 until 70-80% confluent. Cells were trypsinized using 0.25% Trypsin-EDTA (Thermo Fisher Scientific), resuspended in GM and then seeded onto scaffolds at 3.5×10^4 cells/cm^2 and cultured for 11 days in GM alone or with Na2WO4. Na2WO4 was added to GM leading to final Na2WO4 concentrations of 0, 0.01, 0.1, 1, 10 and 50 mM. Samples (n=4) were harvested and analyzed at days 4, 7 and 11 for cell number using the PicoGreen® ds DNA assay (Life Technologies).\nMSCs of known cell number were used as a standard. Standards and samples were prepared by lysing the cells using 0.1% Triton X-100 (Sigma-Aldrich, Mo., USA). The cell lysate of samples and standards (n=4 per group) was mixed with an equal volume of Pico Green dye, which binds to the double-stranded (ds) DNA. Fluorescence intensity was measured with a microplate reader ((FLX800, Biotek Instruments, Vt., USA)) at 480 nm excitation and 520 nm emission. A standard curve of known cell number was used to determine the sample cell number."}, "Human MSCs [2]": {"test_system": "Human MSCs", "test": "Chondrogenesis culture: immunostaining, confocal microscopy", "format": "cell-based", "conditions": "day 28", "method": "(§1) Chondrogenesis Culture. Cryopreserved MSCs were thawed and expanded in GM until 70-80% confluent. Cells were trypsininzed and then seeded on 6 mm diameter scaffold disks at 1.76×10^5 cells/cm^2 and cultured for 28 days in GM, chondrogenic induction medium (CCM), or CCM without insulin, according to previously published methods. CCM consisted of DMEM high glucose containing 4 mM L-glutamine (Invitrogen, Grand Island, N.Y., USA), 0.1 μM dexamethasone (Sigma-Aldrich), 0.17 mM ascorbic acid-2-phosphate (Wako Chemicals, Richmond, Va., USA), 1% ITS+(6.25 µg/mL insulin, 6.25 µg/mL transferrin, 6.25 ng/mL selenous acid, 5.35 μg/ml linoleic acid and 1.25 mg of bovine serum albumin) Premix Culture Supplement (Corning, Corning, N.Y., USA), 1× antibiotic-antimycotic, 1 mM sodium pyruvate (Sigma-Aldrich), 0.35 mM proline (Sigma-Aldrich), and 10 ng/mL recombinant human transforming growth factor-beta3 (TGF-β3, ProSpec, Israel). CCM without insulin consisted of CCM where the 1% ITS+Premix Culture Supplement was substituted with 1% stock solution (6.25 μg/ml transferrin and 6.25 ng/ml selenous acid, 5.35 μg/ml lionleic acid (Sigma-Aldrich) and 1.25 mg of bovine serum albumin (Fisher Scientific). Na2WO4 was added to all media leading to final Na2WO4 concentrations of 0, 0.01, 0.1 and 1 mM. Samples were harvested and analyzed for sulfated glycosaminoglycans (sGAG), cell number and gene expression at day 14 and 28 and for collagen type II and immunostaining at day 28.\nImmunostaining was used to observe cell morphology and collagen type II deposition at day 28. Samples were fixed using 4% paraformaldehyde for 20 minutes. Samples were permealized with 0.1% Triton-X for 15 minutes and then non-specific binding was blocked using 5% donkey serum (Sigma-Aldrich, Mo., USA) for 1 hour. Samples were incubated with mouse antihuman collagen type II antibody (EMD Millipore; Calif., USA) in 4° C. overnight. Samples were then incubated with conjugated northern light 493 secondary antibody (Donkey anti-Mouse IgG, Fisher Scientific, Rockford, Ill.) and rhodamine phalloidin (Life Technologies) for actin filament for 1 h. The nucleus was stained with 4′,6-diamidino-2-phenylindole (DAPI, Fisher Scientific). The images were taken using a confocal fluorescence microscope (Cl-si, Nikon, Japan)."}, "[3]": {"test_system": "human peripheral blood lymphocytes", "conditions": "cited from earlier work"}, "Human MSCs [4]": {"test_system": "Human MSCs", "test": "Chondrogenesis culture: cell number (PicoGreen)", "format": "cell-based", "method": "as §1\nProduction of sGAG and cell number were determined. Samples were digested using papain (Sigma-Aldrich, Mo., USA) buffer overnight at 65 C. ° following manufacturer's protocol. The sGAG assay is used to measure the total sulfated proteoglycan content using Blyscan sGAG Assay Kit (Biocolor, UK). Cell lysate of samples (n=4 per group) and color reagent were combined in transparent 96-well plate and the absorbance at 656 nm was measured using a microplate spectrophotometer (EMax, Molecular Devices, Melville, N.Y., USA). sGAG concentration was determined relative to chondroitin sulfate standard curve. PicoGreen® ds DNA assay (Life Technologies) was used to determine the cell number. MSCs of known cell number were used as standards. Standards were prepared by lysing the cells using papain buffer. The cell lysate of samples and standards (n=4 per group) was mixed with an equal volume of Pico Green reagent. Fluorescence intensity was measured with a microplate reader ((FLX800, Biotek Instruments, Vt., USA)) at 480 nm excitation and 520 nm emission. A standard curve of known cell number was used to determine the sample cell number. GAG production was normalized to cell number."}}, "note": "Where two headings read alike, the source gives them in different places."}
{"smiles": "[Na+].[Na+].[O]=[W](=[O])([O-])[O-]", "note": "[Na2WO4, sodium tungstate]", "values": [{"measurement": "PBMC cell viability vs 0 mM", "setting": "PBMCs", "value": "No significant differences in cell viability"}, {"measurement": "cell number, change from days 4 to 7", "setting": "Human MSCs [1]; 0.01 mM Na2WO4", "value": "significantly increased in cell numbers"}, {"measurement": "cell number, change from days 4 to 7", "setting": "Human MSCs [1]; 0.1 mM Na2WO4", "value": "significantly increased in cell numbers"}, {"measurement": "cell number compared to the other groups", "setting": "Human MSCs [1]; 1 mM Na2WO4", "value": "significantly lower cell numbers"}, {"measurement": "cell number compared to the other groups", "setting": "Human MSCs [1]; 10 mM Na2WO4", "value": "significantly lower cell numbers"}, {"measurement": "cell number compared to the other groups", "setting": "Human MSCs [1]; 50 mM Na2WO4", "value": "significantly lower cell numbers"}, {"measurement": "collagen type II immunostaining vs 0 mM", "setting": "Human MSCs [2]; 0.01 mM Na2WO4, GM", "value": "more intense"}, {"measurement": "collagen type II immunostaining vs 0 mM", "setting": "Human MSCs [2]; 0.1 mM Na2WO4, GM", "value": "more intense"}, {"measurement": "collagen type II immunostaining", "setting": "Human MSCs [2]; CCM without insulin groups, except for 1 mM Na2WO4", "value": "showed collagen type II staining"}, {"measurement": "collagen type II immunostaining vs 0 mM", "setting": "Human MSCs [2]; Na2WO4 groups, CCM", "value": "more intense collagen type II staining"}, {"measurement": "actin filament staining as an indicator of attachment", "setting": "Human MSCs [2]; all groups", "value": "intense actin filament staining"}, {"measurement": "immune response", "setting": "[3]; 0.01 mM", "value": "did not stimulate an immune response"}, {"measurement": "immune response", "setting": "[3]; 0.1 mM", "value": "did not stimulate an immune response"}, {"measurement": "toxicity", "setting": "[3]; 1 mM dose", "value": "significant toxicity occurred"}, {"measurement": "cell number vs 0.1 mM", "setting": "Human MSCs [4]; 0.01 mM Na2WO4, CCM, day 28, p<0.05", "value": "significantly higher than 0.1 mM"}, {"measurement": "cell number vs 0 mM", "setting": "Human MSCs [4]; 0.1 mM Na2WO4, GM, day 14", "value": "significantly higher"}, {"measurement": "cell number vs other groups", "setting": "Human MSCs [4]; 1 mM Na2WO4, CCM", "value": "significantly lower"}, {"measurement": "cell number vs all other groups", "setting": "Human MSCs [4]; 1 mM Na2WO4, CCM without insulin, day 28", "value": "significantly lower cell numbers"}]}
